# Read-outs that look alike come from different tables or passages of the source.
# Tests used:
# [1] = tested on: T. rubrum, T. mentagrophytes, C. albicans, C. neoformans and A. fumigatus; assay: MIC against the panel of fungi tested; type: cell-based; settings: for fold increase in potency: 5-fluoro compound relative to its R^i = H analog (9b vs 9a, 10b vs 10a), strains tested; for fold less active than the corresponding oxaborole: 6-membered oxaborin vs 5-membered oxaborole (23a vs 9a, 23b vs 9b, 24 vs 19b)
# From the text: MIC, or minimum inhibitory concentration, is the point where compound stops more than 90% of cell growth relative to an untreated control.
# (§1) To determine the antifungal activity of these compounds we screened for their minimum inhibitory concentrations (MIC) against the major dermatophytes that cause onychomycosis, T. rubrum and T. mentagrophytes, and against the yeasts and molds C. albicans, C. neoformans and A. fumigatus to test for their broad spectrum activity. The antifungal agent ciclopirox, currently in use for the topical treatment of onychomycosis, was used as a reference.
# (§2) All MIC testing against Trichophyton rubrum, Trichophyton mentagrophytes, Candida albicans, Cryptococcus neoformans and Aspergillus fumigatus were determined following the National Committee for Clinical Laboratory Standards (NCCLS) guidelines for antimicrobial testing of yeasts and filamentous fungi.^i,ii
# Briefly, compounds were dissolved in DMSO and diluted in sterile water to give a working stock. Two-fold serial dilutions of the test compounds were prepared in 96-well plates. The plates were inoculated with the fungal suspensions to give a final inoculum size of 0.5−2.5×10^3 cells/mL for yeasts or 0.4−5×10^4 CFU/mL for filamentous fungi and then incubated for 24-168 h at 35° C. […] Pfaller M A, Chaturvedi V, Espinel-Ingroff A, Ghannoum M A, Gosey L L, Odds F C, Rex J H, Rinaldi M G, Sheehan D J, Walsh T J, Warnock D W. NCCLS publication M27-A2—Reference Method for Broth Dilution Antifungal Susceptibility Testing of Yeasts; Approved Standard—Second Edition. Wayne, P A: NCCLS; 2002 (Vol. 22, No. 15). • ii. Pfaller M A, Chaturvedi V, Espinel-Ingroff A, Ghannoum M A, Gosey L L, Odds F C, Rex J H, Rinaldi M G, Sheehan D J, Walsh T J, Warnock D W. NCCLS publication M38-A—Reference Method for Broth Dilution Antifungal Susceptibility Testing of Filamentous Fungi; Approved Standard. Wayne, P A: NCCLS; 2002 (Vol. 22, No. 16).
# Trichophyton rubrum = assay: MIC against T. rubrum (NCCLS broth dilution); type: cell-based; settings: for MIC: Trichophyton rubrum, read-out: Minimum inhibitory concentration, T. rubrum
# From the text: as §1, §2
# (§3) Two-fold serial dilutions of the test compounds were prepared in 96-well plates. […] Pfaller M A, Chaturvedi V, Espinel-Ingroff A, Ghannoum M A, Gosey L L, Odds F C, Rex J H, Rinaldi M G, Sheehan D J, Walsh T J, Warnock D W. NCCLS publication M27-A2—Reference Method for Broth Dilution Antifungal Susceptibility Testing of Yeasts; Approved Standard—Second Edition. […] Pfaller M A, Chaturvedi V, Espinel-Ingroff A, Ghannoum M A, Gosey L L, Odds F C, Rex J H, Rinaldi M G, Sheehan D J, Walsh T J, Warnock D W. NCCLS publication M38-A—Reference Method for Broth Dilution Antifungal Susceptibility Testing of Filamentous Fungi; Approved Standard.
# Cryptococcus neoformans = assay: MIC against C. neoformans (NCCLS broth dilution); type: cell-based; settings: for MIC: Cryptococcus neoformans, read-out: Minimum inhibitory concentration, C. neoformans
# From the text: as §1, §2, §3
# [2] = tested on: Trichophyton mentagrophytes; assay: MIC against T. mentagrophytes (NCCLS broth dilution); type: cell-based; settings: for MIC: Trichophyton mentagrophytes, read-out: Minimum inhibitory concentration, T. mentagrophytes
# From the text: as §1, §2, §3
# Candida albicans = assay: MIC against C. albicans (NCCLS broth dilution); type: cell-based; settings: for MIC: Candida albicans, read-out: Minimum inhibitory concentration, C. albicans
# From the text: as §1, §2, §3
# Aspergillus fumigatus = assay: MIC against A. fumigatus (NCCLS broth dilution); type: cell-based; settings: for MIC: Aspergillus fumigatus, read-out: Minimum inhibitory concentration, A. fumigatus
# From the text: as §1, §2, §3
# LogP = type: physicochemical
# From the text: (§4) Further discussion, and assays for testing log P, molecular weight and water solubility are described in U.S. patent application Ser. Nos. 11/357,687 and 11/505,591, which are incorporated herein by reference.
# [3] = Penetration of the nail plate; type: in vitro ADME; settings: result in words
# Water solubility = type: physicochemical
# From the text: as §4
# Plasma protein binding = type: in vitro ADME
# [4] = Table 1, over 90% reduction of growth, 24-168 h at 35° C.
# [5] = 24 h, Table 1, over 90% reduction of growth, 24-168 h at 35° C.
compound,measurement,setting,value
"Fc1ccc2c(c1)COB2C=Cc1ccccc1 [10b, 1,3-Dihydro-5-fluoro-1-styryl-2,1-benzoxaborole]",fold increase in potency,[1],4-8 fold
same,MIC,Trichophyton rubrum; [4],≤ 1 µg/mL
same,MIC,Cryptococcus neoformans; [4],0.5 µg/mL
same,MIC,[2]; [4],2 µg/mL
same,melting point,,84 to 86 °C
same,MIC,Candida albicans; [4],0.5 µg/mL
same,MIC,Aspergillus fumigatus; [4],1 µg/mL
"c1ccc(B2OCCc3ccccc32)cc1 [23b, 1-Phenyl-1,2,3,4-tetrahydro-2,1-benzoxaborine]",fold less active than the corresponding oxaborole,[1],4-16 fold
same,MIC,Trichophyton rubrum; [5],8 µg/mL
same,MIC,Cryptococcus neoformans; [5],8 µg/mL
same,MIC,[2]; [5],8 µg/mL
same,MIC,Candida albicans; [5],8 µg/mL
same,MIC,Aspergillus fumigatus; [5],8 µg/mL
"c1ccc(B2OCc3ccccc32)cc1 [9a, 1,3-Dihydro-1-phenyl-2,1-benzoxaborole]","MIC values, range over the strains tested",[1]; all five fungi,4 to 8 µg/mL
same,"Minimum inhibitory concentration, T. rubrum","Trichophyton rubrum; Table 2, 1-phenyl series (9)",4 µg/mL
same,MIC,Trichophyton rubrum; [4],4 µg/mL
same,MIC,Cryptococcus neoformans; [4],8 µg/mL
same,"Minimum inhibitory concentration, C. neoformans","Cryptococcus neoformans; Table 2, 1-phenyl series (9)",8 µg/mL
same,"Minimum inhibitory concentration, T. mentagrophytes","[2]; Table 2, 1-phenyl series (9)",4 µg/mL
same,MIC,[2]; [4],4 µg/mL
same,MIC,Candida albicans; [4],4 µg/mL
same,"Minimum inhibitory concentration, C. albicans","Candida albicans; Table 2, 1-phenyl series (9)",4 µg/mL
same,MIC,Aspergillus fumigatus; [4],4 µg/mL
same,"Minimum inhibitory concentration, A. fumigatus","Aspergillus fumigatus; Table 2, 1-phenyl series (9)",4 µg/mL
"CC1OB(O)c2ccc(F)cc21 (centres unmarked) [19c, 1,3-Dihydro-5-fluoro-1-hydroxy-3-methyl-2,1-benzoxaborolane]",fold decrease in activity,[1]; 3-methyl compound relative to 19b,8-32 fold
same,"Minimum inhibitory concentration, T. rubrum",Trichophyton rubrum; [4],32 µg/mL
same,"Minimum inhibitory concentration, C. neoformans",Cryptococcus neoformans; [4],32 µg/mL
same,"Minimum inhibitory concentration, T. mentagrophytes",[2]; [4],16 µg/mL
same,"Minimum inhibitory concentration, C. albicans",Candida albicans; [4],16 µg/mL
same,"Minimum inhibitory concentration, A. fumigatus",Aspergillus fumigatus; [4],16 µg/mL
"6-Fluoro-1-phenyl-1,2,3,4-tetrahydro-2,1-benzoxaborine [23a]",fold less active than the corresponding oxaborole,[1],approximately 2 fold
same,"Minimum inhibitory concentration, T. rubrum",Trichophyton rubrum; [4],8 µg/mL
same,"Minimum inhibitory concentration, C. neoformans",Cryptococcus neoformans; [4],16 µg/mL
same,"Minimum inhibitory concentration, T. mentagrophytes",[2]; [4],8 µg/mL
same,"Minimum inhibitory concentration, C. albicans",Candida albicans; [4],8 µg/mL
same,"Minimum inhibitory concentration, A. fumigatus",Aspergillus fumigatus; [4],16 µg/mL
"OB1OCCc2cc(F)ccc21 [compound 24, 6-Fluoro-1-hydroxy-1,2,3,4-tetrahydro-2,1-benzoxaborine]",fold less active than the corresponding oxaborole,[1],32-256 fold
same,MIC,Trichophyton rubrum; [4],32 µg/mL
same,MIC,Cryptococcus neoformans; [4],> 64 µg/mL
same,MIC,[2]; [4],32 µg/mL
same,MIC,Candida albicans; [4],64 µg/mL
same,MIC,Aspergillus fumigatus; [4],32 µg/mL
Fc1ccc2c(c1)COB2c1ccccc1 [Compound 3],logP,"LogP; table of b228, read-out: eLogP",3.55
same,penetration of the nail plate,[3],penetrates the nail plate poorly
"Fc1ccc2c(c1)COB2c1ccccc1 [9b, 1,3-Dihydro-5-fluoro-1-phenyl-2,1-benzoxaborole]",fold increase in potency,[1],2-8 fold
same,"Minimum inhibitory concentration, T. rubrum","Trichophyton rubrum; Table 2, 1-phenyl series (9)",1 µg/mL
same,MIC,Trichophyton rubrum; [4],1 µg/mL
same,MIC,Cryptococcus neoformans; [4],2 µg/mL
same,"Minimum inhibitory concentration, C. neoformans","Cryptococcus neoformans; Table 2, 1-phenyl series (9)",2 µg/mL
same,"Minimum inhibitory concentration, T. mentagrophytes","[2]; Table 2, 1-phenyl series (9)",2 µg/mL
same,MIC,[2]; [4],2 µg/mL
same,melting point,,90 to 99 °C
same,MIC,Candida albicans; [4],0.5 µg/mL
same,"Minimum inhibitory concentration, C. albicans","Candida albicans; Table 2, 1-phenyl series (9)",0.5 µg/mL
same,MIC,Aspergillus fumigatus; [4],2 µg/mL
same,"Minimum inhibitory concentration, A. fumigatus","Aspergillus fumigatus; Table 2, 1-phenyl series (9)",2 µg/mL
"Fc1ccc2c(c1)COB2c1cccnc1 [compound 15, 3-(1,3-Dihydro-5-fluoro-2,1-benzoxaborol-1-yl)pyridine]",fold decrease in activity against the dermatophytes,"[1]; T. rubrum and T. mentagrophytes, relative to 9b",16-64 fold
same,fold reduction in activity against C. neoformans and A. fumigatus,[1]; relative to 9b,4 fold
same,MIC,Trichophyton rubrum; [4],16 µg/mL
same,MIC,Cryptococcus neoformans; [4],16 µg/mL
same,MIC,[2]; [4],32 µg/mL
same,melting point,,210 to 212 °C
same,MIC,Candida albicans; [4],4 µg/mL
same,change in activity against C. albicans,"Candida albicans; relative to 9b, in words",no change in activity
same,MIC,Aspergillus fumigatus; [4],16 µg/mL
OB1OCc2cc(F)ccc21 [drawing 88],logP,LogP; read-out: LogP,1.9
same,solubility,Water solubility,> 100 µg/mL
same,fraction unbound,Plasma protein binding,0.34
"Cc1cc(C2CCCCC2)n(O)c(=O)c1 [Ciclopirox, reference compound]",MIC,Trichophyton rubrum; [4],0.5 µg/mL
same,MIC,Cryptococcus neoformans; [4],0.5 µg/mL
same,MIC,[2]; [4],0.5 µg/mL
same,penetration of the nail plate,[3],penetrates the nail plate poorly
same,MIC,Candida albicans; [4],0.5 µg/mL
same,MIC,Aspergillus fumigatus; [4],1 µg/mL
OB1OCc2cc(Cl)ccc21 [drawing 89],logP,LogP; read-out: LogP,2.3
same,solubility,Water solubility,> 100 µg/mL
same,fraction unbound,Plasma protein binding,0.17

# From patent US8106031B2, “Hydrolytically-resistant boron-containing therapeutics and methods of use” (Anacor Pharmaceuticals, Inc., priority 2006, dated 2012)
